Data reported in PubChem BioAssay (NCI).
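1) Cells in 96-well plates. 2) Compound, 48 h, 5 concentrations. 3) Linear interpolation between surrounding doses. 4) Unreached endpoint = highest concentration. Definition used: TGI = concentration required for complete inhibition of growth.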

What was measured:
Assay in all cases: NCI tumour cell line growth inhibition, 48 h
DLD-1 colon = test system: DLD-1 colon
XF 498 CNS = test system: XF 498 CNS
KM20L2 colon = test system: KM20L2 colon
M19-MEL melanoma = test system: M19-MEL melanoma
DMS 114 small cell lung = test system: DMS 114 small cell lung
HOP-18 NSCLC = test system: HOP-18 NSCLC
SNB-78 CNS = test system: SNB-78 CNS
RXF-631 renal = test system: RXF-631 renal
MDA-N = test system: MDA-N

Structure (SMILES) | TGI (DLD-1 colon) | TGI (XF 498 CNS) | TGI (KM20L2 colon) | TGI (M19-MEL melanoma) | TGI (DMS 114 small cell lung) | TGI (HOP-18 NSCLC) | TGI (SNB-78 CNS) | TGI (RXF-631 renal) | TGI (MDA-N)
C/C(CCn1[nH]c(=O)ccc1=O)=N\Nc1ccc([N+](=O)[O-])cc1[N+](=O)[O-] | > 100 µM | > 100 µM | > 100 µM | > 100 µM | > 100 µM | > 100 µM | > 100 µM | > 100 µM | 
CC(C)(C)c1ccc(O)c(CN(Cc2cc(C(C)(C)C)ccc2O)C2CCCCC2)c1 |  |  |  |  |  |  |  |  | 28.1 µM
CCOC(=O)c1c2cccccc2n2c(=O)cc(C)nc12 |  |  | > 100 µM |  |  |  | > 100 µM |  | 
O=C(O)CCSC(=O)Nc1ccccc1Cl | > 100 µM | > 100 µM | > 100 µM | > 100 µM | > 100 µM | > 100 µM | > 100 µM | > 100 µM | 
O=C(O)CCSC(=S)Nc1cccc(F)c1 | > 100 µM |  | > 100 µM | 88.8 µM | 51.8 µM | > 100 µM | > 100 µM |  | 
CN(O)C(=S)c1ccccc1 | 4.52 µM | > 100 µM | > 100 µM | 4.68 µM | 4.12 µM | > 100 µM | > 100 µM | 2.92 µM | > 20.5 µM
C=C1NC(=O)C(CC(C(=O)C(=O)Nc2c(C)cccc2C(C)(C)C)C(=O)c2ccc3ccccc3c2)C(=O)N1 (stereo not drawn) |  |  |  |  |  |  |  |  | > 100 µM
Cc1ccc(NC(=O)CC/C(CC(=O)C(C)(C)C)=N\Nc2ccc([N+](=O)[O-])cc2[N+](=O)[O-])cc1C | > 100 µM |  | > 100 µM | > 100 µM | > 100 µM | > 100 µM | > 100 µM | > 100 µM | 
COc1cc(CC(C(=O)O)C(=O)O)c(OC)cc1CC(C(=O)O)C(=O)O | > 100 µM | > 100 µM | > 100 µM | > 100 µM | > 100 µM |  | > 100 µM |  | 
COc1cc2c(cc1OC)c1c(OC)c(OC)cc3c1c1c2sc(=S)n1CC3 | > 100 µM |  | > 100 µM | > 100 µM | 98.1 µM | > 100 µM | > 100 µM |  | 
CC(CCCC1SCC2NC(=O)NC21)C(=O)O (stereo not drawn) |  |  |  |  |  |  |  |  | > 100 µM
CC(=O)NC(CCCCN(Cc1ccccc1)C(=O)N(CCCl)N=O)C(=O)NCc1ccccc1 (stereo not drawn) | > 79 µM | > 49.8 µM | > 69.5 µM | > 100 µM | > 100 µM | 87.5 µM | > 100 µM |  | 36.3 µM
CC1=NN(C(=O)c2ccc(Cl)cc2)C(=O)/C1=C/c1ccco1 | > 100 µM | > 100 µM | > 100 µM | > 100 µM | > 100 µM |  | > 100 µM |  | 
CC1=C2[C@H](c3ccccc3)C3C=CC2(c2ccccc23)N(C(=O)C(c2ccccc2)c2ccccc2)C1=O (stereo partly drawn) | > 100 µM | > 100 µM | > 100 µM | > 100 µM | > 100 µM | > 100 µM |  |  | 
COC(=O)C(C(=O)C(=O)Nc1ccc(OC)cc1[N+](=O)[O-])c1nc2cc(C)c(C)cc2[nH]c1=O (stereo not drawn) | > 100 µM |  | > 100 µM | > 100 µM | > 100 µM | > 100 µM | > 100 µM | > 100 µM | 
C=C1C(=O)OC2CC3(C)CCCC(C)C3=CC12 (stereo not drawn) |  |  |  |  |  |  |  |  | 11.4 µM
COc1cc(/C=C\c2ccc(OC(C)=O)cc2)cc(OC)c1OC | > 100 µM | 82.9 µM | > 100 µM | > 100 µM | > 100 µM |  | 84.1 µM | > 100 µM | 
Nc1ccc2c(c1)Oc1c(F)c(F)cc3c(=O)c(C(=O)O)cn-2c13 | > 100 µM |  | > 100 µM | > 100 µM | > 100 µM | > 100 µM |  |  | 
CC(=O)O/N=C(Cl)/C(Cl)=N/OC(C)=O | > 100 µM | > 100 µM | > 100 µM |  | > 100 µM | > 100 µM | > 100 µM |  | 
Cc1nc(Nc2ccccc2)sc1C(=O)CC(=O)C(=O)NC12CC3CC(CC(C3)C1)C2 | > 100 µM | > 100 µM | > 100 µM | > 100 µM | > 100 µM | > 100 µM | > 100 µM |  | 
O=C1C(=O)N(c2cccc(C(F)(F)F)c2)C(=O)C(=O)C1c1nc2ccccc2s1 | > 100 µM | > 100 µM | > 100 µM | > 100 µM | > 100 µM | > 100 µM | > 100 µM | > 100 µM | > 100 µM
CCN(CC)CC(C)(C)C(=O)/C=C/c1ccc(/C=C/C(=O)C(C)(C)CN(CC)CC)cc1 | 1.26 µM | 1.03 µM | 2.51 µM | 4.23 µM | 0.876 µM |  | 4.64 µM |  | 1.66 µM
CC(O)CN1c2ccccc2Sc2ccc(Cl)cc21 (stereo not drawn) |  |  |  |  |  |  |  |  | > 10 µM
COc1ccc(/C=c2/sc3n(c2=O)NC(c2ccc(Cl)cc2)NN=3)cc1 (stereo not drawn) | > 100 µM | > 100 µM | > 100 µM | > 100 µM | > 100 µM |  | > 100 µM |  | 
CCOC(=O)NC(=O)c1cn(CCN2CCNCC2)c(=O)[nH]c1=O | > 100 µM | > 100 µM |  | > 100 µM | > 100 µM | > 100 µM | > 100 µM |  | 
Cc1c(C2Cc3ccccc3N2)c2ccccc2n1C (stereo not drawn) | > 100 µM | > 100 µM | > 100 µM | > 100 µM | > 100 µM |  | > 100 µM |  | 
